# Biological target: T1, β-catenin (Homo sapiens, UniProt P35222)
# T1 sequence (P35222 1-781): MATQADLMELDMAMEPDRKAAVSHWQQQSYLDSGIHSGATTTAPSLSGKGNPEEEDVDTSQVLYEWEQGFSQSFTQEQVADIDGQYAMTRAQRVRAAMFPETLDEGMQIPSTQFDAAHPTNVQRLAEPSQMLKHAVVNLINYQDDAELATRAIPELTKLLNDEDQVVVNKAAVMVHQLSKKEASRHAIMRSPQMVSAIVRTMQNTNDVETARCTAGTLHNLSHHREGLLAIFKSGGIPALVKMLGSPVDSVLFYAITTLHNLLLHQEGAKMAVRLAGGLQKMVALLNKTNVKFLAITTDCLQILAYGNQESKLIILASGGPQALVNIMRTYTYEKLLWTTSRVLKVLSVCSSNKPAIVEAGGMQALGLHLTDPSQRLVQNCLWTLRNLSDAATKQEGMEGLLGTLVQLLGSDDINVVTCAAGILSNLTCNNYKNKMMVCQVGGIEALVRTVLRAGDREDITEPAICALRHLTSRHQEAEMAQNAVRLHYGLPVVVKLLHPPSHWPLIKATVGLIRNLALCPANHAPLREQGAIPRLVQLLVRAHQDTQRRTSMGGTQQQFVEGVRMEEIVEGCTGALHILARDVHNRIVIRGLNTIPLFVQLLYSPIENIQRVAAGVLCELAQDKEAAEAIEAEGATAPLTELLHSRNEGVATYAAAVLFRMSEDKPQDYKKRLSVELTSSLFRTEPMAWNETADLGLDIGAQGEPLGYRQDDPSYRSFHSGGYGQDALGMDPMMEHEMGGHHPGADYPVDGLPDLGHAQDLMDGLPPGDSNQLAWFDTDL
# Experiment: HTRF binding assay
# Conditions: WX-024 coupled to biotin
# Excerpt: HTRF assays provide a means of assaying protein-protein interactions in a high-throughput format, as discussed in Degorce et al., Curr Chemical Genom. 3, 22-32 (2009). In an HTRF assay to measure a protein-protein interaction, binding of 2 proteins brings an HTRF donor and acceptor fluorophore into close proximity and generates the fluorescence energy transfer (FRET) signal. Each protein of the interaction is associated with the donor or the acceptor by an antibody reaction.
# FIG. 6A provides a schematic to depict the basis of the HTRF assay. In the HTRF assay for β-catenin (Cisbio), β-catenin is bound by an XL665-coupled antibody (ab) against β-catenin. See Degorce (2009). β-catenin bound to an XL665-coupled antibody can interact with its binding partners, such as BCL9 or BCL9 peptides.
# SA is a high-affinity binding partner to biotin and will tightly bind the SA-europium cryptate to the biotinylated stabilized polypeptides. Europium cryptate is an energy donor for an HTRF reaction. When not closely bound, there is no energy transfer between europium cryptate and XL665.
# Histidine-tagged β-catenin, BCL9 peptide labeled with biotin, europium (Eu) labeled monoclonal antibody for histidine tag, and SA-XL665 were used in the HTRF assay. […] The reaction was incubated at room temperature for 1 hour and then the plate was read.
smiles,measurement,value
"CC[C@H](C)[C@@H]1NC(=O)[C@@](C)(NC(=O)[C@H](CCCNC(=N)N)NC(=O)[C@H](CC(C)C)NC(=O)[C@@H](NC(=O)[C@H](CCC(N)=O)NC(=O)[C@H](CC(C)C)NC(C)=O)[C@@H](C)O)CCCC=CCCC[C@@](C)(C(=O)N[C@@H](CC(C)C)C(=O)N[C@@H](Cc2ccc3ccccc3c2)C(N)=O)NC(=O)[C@H](CCCNC(=N)N)NC(=O)[C@H](CCC(N)=O)NC1=O [WX-024, LQTLRXaa1IQRXaa2L]",Kd,4.21 nM

# Source: patent publication US12264185B2, “Stabilized BCL9 peptides for treatment of aberrant Wnt signaling” (WntRx Pharmaceuticals Inc., priority 2015, dated 2025)
